In patent US20230123334A1, “AMINO LIPID COMPOUND, PREPARATION METHOD THEREFOR, AND APPLICATION THEREOF” (SHENZHEN SHENXIN BIOTECHNOLOGY CO., LTD., priority 2020, published 2023):

system: cardiomyocytes; assay: Screening as DNA vectors in cardiomyocytes; format: cell-based; design: concentration or dose not given beside the values; settings: method as Example 4
Protocol: Cell line: cardiomyocytes (obtained from induced differentiation of hESC according to reported methods: J. Mol. Cell. Cardiol. 2011, 51, 288-298)
(§1) Medium: DMEM supplemented with 10% fetal bovine serum (Invitrogen)
(§2) Mode of screening: cell transfection on 96-well plates
(§3) Detection (readout): percentage of the number of GFP fluorescent cells relative to the total number of cells (the total number of cells was determined using nucleus dye Hoechst). Lipofectamine Stem (Invitrogen) was used as the positive control, according to the manufacturer's instructions.
(§4) Method: the experimental method was basically the same with Example 4.

| Structure (SMILES) | Absolute DNA transfection efficiency in cardiomyocytes [%] |
| --- | --- |
| CCCCCCCCCCCNc1nc(NCC2CCN(C)CC2)nc(SCCCCCCCC)n1 [Compound S8N11D10] | 6.6 |
| CCCCCCCCCCCSc1nc(NCCN2CCCC2)nc(SCCCCCCCC)n1 [Compound S8S11D3] | 1.9 |
| CCCCCCCCCCCSc1nc(NCCN2CCN(C)CC2)nc(SCCCCCCCC)n1 [Compound S8S11D5] | 0.5 |
| CCCCCCCCCCCSc1nc(NCCCN(C)C)nc(SCCCCCCCC)n1 [Compound S8S11D6] | 1.0 |
| CCCCCCCCCCCSc1nc(NCCCN2CCOCC2)nc(SCCCCCCCC)n1 [Compound S8S11D8] | 2.2 |
| CCCCCCCCCCCSc1nc(NCCCN2CCN(C)CC2)nc(SCCCCCCCC)n1 [Compound S8S11D9] | 0.8 |

system: MCF7 cells; assay: Transfection of MCF7 cell line, DNA vectors; format: cell-based; design: concentration or dose not given beside the values; settings: plasmid DNA, GFP cells / total cells
Protocol: (§5) Cell line: MCF7 cells (ATCC HTB-22)
Medium DMEM supplemented with […] fetal bovine serum
(§6) Screening: cell transfection on 96-well plates
Detection (readout): percentage of the number of GFP fluorescent cells relative to the total number of cells (the total number of cells was determined using nucleus dye Hoechst). Lipofectamine2000 was used as the positive control, according to the manufacturer's instructions.
as §4

| Structure (SMILES) | Absolute DNA transfection efficiency in MCF7 cells [%] |
| --- | --- |
| CCCCCCCCCCCNc1nc(NCC2CCN(C)CC2)nc(SCCCCCCCC)n1 [Compound S8N11D10] | 45.3 |
| CCCCCCCCCCCSc1nc(NCCN2CCCC2)nc(SCCCCCCCC)n1 [Compound S8S11D3] | 2.7 |
| CCCCCCCCCCCSc1nc(NCCN2CCN(C)CC2)nc(SCCCCCCCC)n1 [Compound S8S11D5] | 48.3 |
| CCCCCCCCCCCSc1nc(NCCCN(C)C)nc(SCCCCCCCC)n1 [Compound S8S11D6] | 56.8 |
| CCCCCCCCCCCSc1nc(NCCCN2CCOCC2)nc(SCCCCCCCC)n1 [Compound S8S11D8] | 12.3 |
| CCCCCCCCCCCSc1nc(NCCCN2CCN(C)CC2)nc(SCCCCCCCC)n1 [Compound S8S11D9] | 59.8 |

system: Hela cells; assay: Transfection of Hela cell line, DNA vectors; format: cell-based; settings: 75 ng plasmid DNA, GFP cells / total cells
How it was run: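 Amino lipid/DOPE liposomes in sodium acetate pH 5.6 were complexed with 75 ng psin-EGFP-IRES-Puro plasmid for 30 min at room temperature, then mixed with 3-5×10^4 Hela cells in DMEM/10% FBS at 37° C. Hoechst stain after 20-24 h, imaging after a further 20-24 h. Efficiency = GFP-positive cells / total nuclei.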

| Structure (SMILES) | Absolute DNA transfection efficiency in Hela cells [%] |
| --- | --- |
| CCCCCCCCCCCNc1nc(NCC2CCN(C)CC2)nc(SCCCCCCCC)n1 [Compound S8N11D10] | 23.4 |
| CCCCCCCCCCCSc1nc(NCCN2CCCC2)nc(SCCCCCCCC)n1 [Compound S8S11D3] | 3.3 |
| CCCCCCCCCCCSc1nc(NCCN2CCN(C)CC2)nc(SCCCCCCCC)n1 [Compound S8S11D5] | 5.9 |
| CCCCCCCCCCCSc1nc(NCCCN(C)C)nc(SCCCCCCCC)n1 [Compound S8S11D6] | 3.9 |
| CCCCCCCCCCCSc1nc(NCCCN2CCOCC2)nc(SCCCCCCCC)n1 [Compound S8S11D8] | 7.6 |
| CCCCCCCCCCCSc1nc(NCCCN2CCN(C)CC2)nc(SCCCCCCCC)n1 [Compound S8S11D9] | 6.8 |

system: MCF7 cells; assay: Transfection of MCF7 cell line, mRNA vectors; format: cell-based; settings: 50 ng EGFP mRNA per well
Protocol: as §5
Medium: DMEM supplemented with 10 fetal bovine serum (Invitrogen)
as §6
Detection (readout): percentage of the number of GFP fluorescent cells relative to the total number of cells (the total number of cells was determined using nucleus dye Hoechst). Lipofectamine2000 (Invitrogen) was used as the positive control.
Method: the experimental method was basically the same with Example 4, and the mass of EGFP mRNA (TriLink) for transfection was 50 ng per well.

| Structure (SMILES) | Absolute mRNA transfection efficiency in MCF7 cells [%] |
| --- | --- |
| CCCCCCCCCCCNc1nc(NCC2CCN(C)CC2)nc(SCCCCCCCC)n1 [Compound S8N11D10] | 4.4 |
| CCCCCCCCCCCSc1nc(NCCN2CCCC2)nc(SCCCCCCCC)n1 [Compound S8S11D3] | 20.4 |
| CCCCCCCCCCCSc1nc(NCCN2CCN(C)CC2)nc(SCCCCCCCC)n1 [Compound S8S11D5] | 30.6 |
| CCCCCCCCCCCSc1nc(NCCCN(C)C)nc(SCCCCCCCC)n1 [Compound S8S11D6] | 46.3 |
| CCCCCCCCCCCSc1nc(NCCCN2CCOCC2)nc(SCCCCCCCC)n1 [Compound S8S11D8] | 7.0 |
| CCCCCCCCCCCSc1nc(NCCCN2CCN(C)CC2)nc(SCCCCCCCC)n1 [Compound S8S11D9] | 34.9 |

system: cardiomyocytes; assay: Screening as mRNA vectors in cardiomyocytes; format: cell-based; settings: 50 ng EGFP mRNA per well
Protocol: Cell line: cardiomyocytes (obtained from induced differentiation of hESC according to reported methods: J Mol. Cell. Cardiol. 2011, 51, 288-298)
as §1, §2, §3
Method: the experimental method was basically the same with Example 4, and the mass of EGFP mRNA for transfection was 50 ng per well.

| Structure (SMILES) | Absolute mRNA transfection efficiency in cardiomyocytes [%] |
| --- | --- |
| CCCCCCCCCCCNc1nc(NCC2CCN(C)CC2)nc(SCCCCCCCC)n1 [Compound S8N11D10] | 16.8 |
| CCCCCCCCCCCSc1nc(NCCN2CCCC2)nc(SCCCCCCCC)n1 [Compound S8S11D3] | 21.0 |
| CCCCCCCCCCCSc1nc(NCCN2CCN(C)CC2)nc(SCCCCCCCC)n1 [Compound S8S11D5] | 2.7 |
| CCCCCCCCCCCSc1nc(NCCCN(C)C)nc(SCCCCCCCC)n1 [Compound S8S11D6] | 18.4 |
| CCCCCCCCCCCSc1nc(NCCCN2CCOCC2)nc(SCCCCCCCC)n1 [Compound S8S11D8] | 0.7 |
| CCCCCCCCCCCSc1nc(NCCCN2CCN(C)CC2)nc(SCCCCCCCC)n1 [Compound S8S11D9] | 25.5 |

system: Hela cells; assay: Transfection of Hela cell line, mRNA vectors; format: cell-based; settings: 50 ng EGFP mRNA per well
How it was run: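 Transfection efficiency was scored as GFP-fluorescent cells over Hoechst-stained total nuclei, with Lipofectamine2000 as reference reagent. Each well of HeLa cells, grown in DMEM plus 10% FBS, received 50 ng EGFP mRNA.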

| Structure (SMILES) | Absolute mRNA transfection efficiency in Hela cells [%] |
| --- | --- |
| CCCCCCCCCCCNc1nc(NCC2CCN(C)CC2)nc(SCCCCCCCC)n1 [Compound S8N11D10] | 23.4 |
| CCCCCCCCCCCSc1nc(NCCN2CCCC2)nc(SCCCCCCCC)n1 [Compound S8S11D3] | 3.3 |
| CCCCCCCCCCCSc1nc(NCCN2CCN(C)CC2)nc(SCCCCCCCC)n1 [Compound S8S11D5] | 5.9 |
| CCCCCCCCCCCSc1nc(NCCCN(C)C)nc(SCCCCCCCC)n1 [Compound S8S11D6] | 3.9 |
| CCCCCCCCCCCSc1nc(NCCCN2CCOCC2)nc(SCCCCCCCC)n1 [Compound S8S11D8] | 7.6 |
| CCCCCCCCCCCSc1nc(NCCCN2CCN(C)CC2)nc(SCCCCCCCC)n1 [Compound S8S11D9] | 6.8 |

system: embryonic stem cells (hESC2); assay: Screening as mRNA vectors in embryonic stem cells; format: cell-based; settings: 50 ng EGFP mRNA per well
Protocol: (§7) Cell line: embryonic stem cells (hESC2, cultured according to reported methods: Stem Cells, 2005, 23, 544-549)
(§8) Medium: mTeSR1 (STEMCELL)
Mode of screening: cell transfection on 96-well plate
(§9) Detection (readout): percentage of the number of GFP fluorescent cells relative to the total number of cells. Lipofectamine Stem was used as the positive control.
Method: the experimental method was basically the same with Example 10, and the mass of EGFP mRNA for transfection was 50 ng per well.

| Structure (SMILES) | Absolute mRNA transfection efficiency in embryonic stem cells [%] |
| --- | --- |
| CCCCCCCCCCCNc1nc(NCC2CCN(C)CC2)nc(SCCCCCCCC)n1 [Compound S8N11D10] | 0.7 |
| CCCCCCCCCCCSc1nc(NCCN2CCCC2)nc(SCCCCCCCC)n1 [Compound S8S11D3] | 21.4 |
| CCCCCCCCCCCSc1nc(NCCN2CCN(C)CC2)nc(SCCCCCCCC)n1 [Compound S8S11D5] | 21.1 |
| CCCCCCCCCCCSc1nc(NCCCN(C)C)nc(SCCCCCCCC)n1 [Compound S8S11D6] | 10.3 |
| CCCCCCCCCCCSc1nc(NCCCN2CCOCC2)nc(SCCCCCCCC)n1 [Compound S8S11D8] | 1.6 |
| CCCCCCCCCCCSc1nc(NCCCN2CCN(C)CC2)nc(SCCCCCCCC)n1 [Compound S8S11D9] | 18.1 |

system: embryonic stem cells (hESC2); assay: Screening as DNA vectors in embryonic stem cells, flow cytometry; format: cell-based; settings: 75 ng plasmid DNA, 48 hours after transfection, flow cytometer
Text: as §7, §8, §2, §9
Method: an 8-channel pipette was used for sample addition. The contents shown were for a single well of a 96-well flat plate.
1. Stem cells were cultured to 3-5×10^4 cells per well in a 96-well plate treated with matrigel.
2. The compound (0.01 mmol) prepared in Example 1 was dissolved in 1 mL of anhydrous ethanol. After ultrasonically dissolved, 10 μL of the resultant amino lipid solution in ethanol was taken and mixed with 5 μL of DOPE solution in ethanol ([…]). The obtained mixture was then added with 35 μL of 0.2 M sodium acetate buffer (pH 5.6), and vortexed at a constant rotating speed for 30 s. Then, 4 μL was taken from the obtained product and added to 46 μL of 0.02 M sodium acetate buffer (pH 5.6), and vortexed at a constant rotating speed for 30 s to form a liposome solution. 5 μL of this liposome solution was mixed with 75 ng of plasmid DNA (pSin-EGFP-IRES-Puro) dissolved in 5 μL of 0.02 M sodium acetate buffer, and allowed to stay at room temperature for 30 min to form a lipid/DNA transfection complex.
3. 10 μL of the lipid/DNA transfection complex was incubated at room temperature for 30 min, followed by addition of 90 μL mTeSR1 medium was added and mixing with a pipette. 100 μL of the mixture was added to separate wells of a 96-well culture plate and placed in an incubator containing 5% CO2 at 37° C.
4. 48 hours after transfection, the cells were digested with 0.05% Trypsin-EDTA. The cells were resuspended in a PBS buffer and filtered. The cell suspension was placed in a flow cytometer and the number of GFP-expressing cells in no less than 2000 cells was measured so as to obtain the absolute efficiency of cell transfection. The relative efficiency of cell transfection was obtained by comparing the cell transfection efficiency with the positive control Lipofectamine Stem.

| Structure (SMILES) | Absolute DNA transfection efficiency in embryonic stem cells [%] |
| --- | --- |
| CCCCCCCCCCCNc1nc(NCC2CCN(C)CC2)nc(SCCCCCCCC)n1 [Compound S8N11D10] | 0.7 |
| CCCCCCCCCCCSc1nc(NCCN2CCCC2)nc(SCCCCCCCC)n1 [Compound S8S11D3] | 0.7 |
| CCCCCCCCCCCSc1nc(NCCN2CCN(C)CC2)nc(SCCCCCCCC)n1 [Compound S8S11D5] | 2.4 |
| CCCCCCCCCCCSc1nc(NCCCN(C)C)nc(SCCCCCCCC)n1 [Compound S8S11D6] | 1.6 |
| CCCCCCCCCCCSc1nc(NCCCN2CCOCC2)nc(SCCCCCCCC)n1 [Compound S8S11D8] | 1.0 |
| CCCCCCCCCCCSc1nc(NCCCN2CCN(C)CC2)nc(SCCCCCCCC)n1 [Compound S8S11D9] | 1.0 |
